Laboratory results from article PMC3265452 (PLoS Neglected Tropical Diseases, 2012).
Where a name gives a salt, the structure may show the parent alone.

The molecules below were run against AaDOP2 (Aedes aegypti, UniProt H6D5H2) (assay: AaDOP2 antagonist screen of the LOPAC1280 library (HEK-CRELuc-Aadop2 cells, luminescence)). Conditions: not given.
Chain of AaDOP2 (H6D5H2 1-476): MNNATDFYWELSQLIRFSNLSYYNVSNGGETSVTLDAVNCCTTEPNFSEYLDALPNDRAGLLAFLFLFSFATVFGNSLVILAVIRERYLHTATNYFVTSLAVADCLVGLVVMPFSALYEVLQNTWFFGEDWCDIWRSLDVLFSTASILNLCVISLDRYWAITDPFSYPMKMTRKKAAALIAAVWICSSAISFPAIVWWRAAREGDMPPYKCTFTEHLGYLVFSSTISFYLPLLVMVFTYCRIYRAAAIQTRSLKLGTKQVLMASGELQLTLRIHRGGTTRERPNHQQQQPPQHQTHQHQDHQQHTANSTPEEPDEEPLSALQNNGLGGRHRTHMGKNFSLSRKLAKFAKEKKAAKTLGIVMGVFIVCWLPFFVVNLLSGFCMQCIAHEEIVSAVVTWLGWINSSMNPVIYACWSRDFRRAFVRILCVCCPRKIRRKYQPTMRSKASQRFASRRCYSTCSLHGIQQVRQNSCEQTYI
Assay type: cell-based
In the case of C1COC(NC(C2CC2)C2CC2)=N1 [Compound 1071, Rilmenidine hemifumarate], the “Compound effect (percent receptor signaling in presence of test compound, relative lux units relative to the SCH23390 control)” value is reported as 114. In the case of COc1cccc(NC(=O)/C=C/c2ccc(Cl)cc2)c1 [Compound 1075, SB-366791], the “Compound effect (percent receptor signaling in presence of test compound, relative lux units relative to the SCH23390 control)” value is reported as 105. In the case of Nc1ccc(S(=O)(=O)Nc2ccnn2-c2ccccc2)cc1 [Compound 1078, Sulfaphenazole], the “Compound effect (percent receptor signaling in presence of test compound, relative lux units relative to the SCH23390 control)” value is reported as 112. For CN1CCc2cccc(Cl)c2CC1 [Compound 1082, SKF 86466], the “Compound effect (percent receptor signaling in presence of test compound, relative lux units relative to the SCH23390 control)” value was 37. For Cl.NC1CCN(c2cccc(Cl)n2)CC1 [Compound 1083, SR 57227A], the “Compound effect (percent receptor signaling in presence of test compound, relative lux units relative to the SCH23390 control)” value was 100. With Cl.NNC(N)=O [Compound 1086, Semicarbazide hydrochloride] the “Compound effect (percent receptor signaling in presence of test compound, relative lux units relative to the SCH23390 control)” value was 107. In the case of NCCCCNCCCN [Compound 1089, Spermidine trihydrochloride], the “Compound effect (percent receptor signaling in presence of test compound, relative lux units relative to the SCH23390 control)” value is reported as 104. C=CCN1C[C@H](C)N([C@H](c2ccc(C(=O)N(CC)CC)cc2)c2cccc(OC)c2)C[C@H]1C [Compound 1090, SNC80] was tested, and the “Compound effect (percent receptor signaling in presence of test compound, relative lux units relative to the SCH23390 control)” value was 94. With Br.Cc1cccc(C2CN(C)CCc3c2cc(O)c(O)c3Cl)c1 (centres unmarked) [Compound 1091, SKF 83959 hydrobromide] the “Compound effect (percent receptor signaling in presence of test compound, relative lux units relative to the SCH23390 control)” value was 50. For NCCCNCCCCNCCCN [Compound 1092, Spermine tetrahydrochloride], the “Compound effect (percent receptor signaling in presence of test compound, relative lux units relative to the SCH23390 control)” value was 88. In the case of CC(=O)NNC(=O)N1Cc2ccccc2Oc2ccc(Cl)cc21 [Compound 1094, SC 19220], the “Compound effect (percent receptor signaling in presence of test compound, relative lux units relative to the SCH23390 control)” value is reported as 99. Br.Oc1ccc(C2CNCc3sccc32)cc1O (centres unmarked) [Compound 1095, SKF 89626] was tested, and the “Compound effect (percent receptor signaling in presence of test compound, relative lux units relative to the SCH23390 control)” value was 89. CC(=O)S[C@@H]1CC2=CC(=O)CC[C@]2(C)[C@H]2CC[C@@]3(C)[C@@H](CC[C@@]34CCC(=O)O4)[C@H]12 [Compound 1099, Spironolactone] was tested, and the “Compound effect (percent receptor signaling in presence of test compound, relative lux units relative to the SCH23390 control)” value was 84. For N[C@H](CO)C(=O)O [Compound 1101, D-Serine], the “Compound effect (percent receptor signaling in presence of test compound, relative lux units relative to the SCH23390 control)” value was 100. For C[n+]1cc2c3c(ccc2c2ccc4cc5c(cc4c21)OCO5)OCO3 [Compound 1103, Sanguinarine chloride], the “Compound effect (percent receptor signaling in presence of test compound, relative lux units relative to the SCH23390 control)” value was 75. In the case of CCCCCCCCCCCCC/C=C/[C@@H](O)[C@@H](N)CO [Compound 1105, Sphingosine], the “Compound effect (percent receptor signaling in presence of test compound, relative lux units relative to the SCH23390 control)” value is reported as 106. In the case of CC1CCN(CC[C@H]2CCCN2S(=O)(=O)c2cccc(O)c2)CC1.Cl [Compound 1106, SB 269970 hydrochloride], the “Compound effect (percent receptor signaling in presence of test compound, relative lux units relative to the SCH23390 control)” value is reported as 98. O=C(CCCN1CCC2(CC1)C(=O)NCN2c1ccccc1)c1ccc(F)cc1 [Compound 1107, Spiperone hydrochloride] was tested, and the “Compound effect (percent receptor signaling in presence of test compound, relative lux units relative to the SCH23390 control)” value was 29. In the case of O=C(O)c1ccccc1Nc1cccc(OCc2ccc3ccccc3n2)c1 [Compound 1108, SR 2640], the “Compound effect (percent receptor signaling in presence of test compound, relative lux units relative to the SCH23390 control)” value is reported as 91. With CCN1CCC[C@H]1CNC(=O)c1cc(S(N)(=O)=O)ccc1OC [Compound 1109, (-)-Sulpiride] the “Compound effect (percent receptor signaling in presence of test compound, relative lux units relative to the SCH23390 control)” value was 87. For COc1ccc(CCCOC(Cn2ccnc2)c2ccc(OC)cc2)cc1 (centres unmarked) [Compound 1110, SKF 96365], the “Compound effect (percent receptor signaling in presence of test compound, relative lux units relative to the SCH23390 control)” value was 68. CC#CCOC(=O)c1c(C)nc2sc3c(c2c1N)CCC(O)C3 (centres unmarked) [Compound 1112, SB 205384] was tested, and the “Compound effect (percent receptor signaling in presence of test compound, relative lux units relative to the SCH23390 control)” value was 81. For CCCCCCCCCCCCCCCCCCNC(=O)OCC(COP(=O)([O-])OCC[n+]1ccsc1)OC (centres unmarked) [Compound 1114, CV-3988], the “Compound effect (percent receptor signaling in presence of test compound, relative lux units relative to the SCH23390 control)” value was 101. In the case of CC1=C(CC(=O)O)c2cc(F)ccc2/C1=C\c1ccc([S+](C)[O-])cc1 (centres unmarked) [Compound 1115, Sulindac], the “Compound effect (percent receptor signaling in presence of test compound, relative lux units relative to the SCH23390 control)” value is reported as 107. C[N+](C)(C)CCOC(=O)CCC(=O)OCC[N+](C)(C)C [Compound 1116, Succinylcholine chloride] was tested, and the “Compound effect (percent receptor signaling in presence of test compound, relative lux units relative to the SCH23390 control)” value was 94. In the case of CC(C)(C)NCC(O)c1ccc(O)c(CO)c1 (centres unmarked) [Compound 1117, Salbutamol], the “Compound effect (percent receptor signaling in presence of test compound, relative lux units relative to the SCH23390 control)” value is reported as 107. In the case of OCc1cc(C(O)CNCCCCCCOCCCCc2ccccc2)ccc1O (centres unmarked) [Compound 1118, Salmeterol], the “Compound effect (percent receptor signaling in presence of test compound, relative lux units relative to the SCH23390 control)” value is reported as 104. With C[N+]1(C)[C@@H]2C[C@@H](OC(=O)[C@H](CO)c3ccccc3)C[C@H]1[C@@H]1O[C@@H]12 [Compound 1120, (-)-Scopolamine methyl bromide] the “Compound effect (percent receptor signaling in presence of test compound, relative lux units relative to the SCH23390 control)” value was 114. CN(C)c1ccc(/C=C2\C(=O)Nc3ccccc32)cc1 [Compound 1121, SU 4312] was tested, and the “Compound effect (percent receptor signaling in presence of test compound, relative lux units relative to the SCH23390 control)” value was 51. CCc1ccccc1OC[C@@H](O)CN[C@H]1CCCc2ccccc21.O=C(O)C(=O)O [Compound 1122, SR 59230A oxalate] was tested, and the “Compound effect (percent receptor signaling in presence of test compound, relative lux units relative to the SCH23390 control)” value was 75. With Cl.O=C(Cc1ccc(Cl)c(Cl)c1)N1CCCCC1CN1CCCC1 (centres unmarked) [Compound 1123, BRL 52537 hydrochloride] the “Compound effect (percent receptor signaling in presence of test compound, relative lux units relative to the SCH23390 control)” value was 97. For Cc1ccc(O)c(N=Nc2ccccc2)n1 [Compound 1125, SIB 1757], the “Compound effect (percent receptor signaling in presence of test compound, relative lux units relative to the SCH23390 control)” value was 46. With Cc1cccc(/C=C/c2ccccc2)n1 [Compound 1126, SIB 1893] the “Compound effect (percent receptor signaling in presence of test compound, relative lux units relative to the SCH23390 control)” value was 83. Cl.c1ccc2c(N3CCNCC3)cccc2c1 [Compound 1127, 1-(1-Naphthyl)piperazine hydrochloride] was tested, and the “Compound effect (percent receptor signaling in presence of test compound, relative lux units relative to the SCH23390 control)” value was 79. O=C(c1ccc(F)cc1)C1CCN(CCn2c(=O)[nH]c3ccccc3c2=O)CC1 [Compound 1128, Ketanserin tartrate] was tested, and the “Compound effect (percent receptor signaling in presence of test compound, relative lux units relative to the SCH23390 control)” value was 53. With COc1ccccc1N1CCNCC1.Cl [Compound 1129, 1-(2-Methoxyphenyl)piperazine hydrochloride] the “Compound effect (percent receptor signaling in presence of test compound, relative lux units relative to the SCH23390 control)” value was 64. Nc1ccc(CCN2CCN(c3cccc(C(F)(F)F)c3)CC2)cc1 [Compound 1130, PAPP] was tested, and the “Compound effect (percent receptor signaling in presence of test compound, relative lux units relative to the SCH23390 control)” value was 66. For O=C1NCN(c2ccccc2)C12CCN(CC1COc3ccccc3O1)CC2 (centres unmarked) [Compound 1131, Spiroxatrine], the “Compound effect (percent receptor signaling in presence of test compound, relative lux units relative to the SCH23390 control)” value was 90. In the case of Br.COc1ccc(-c2ccc(=N)n(CCCC(=O)O)n2)cc1 [Compound 1132, SR-95531], the “Compound effect (percent receptor signaling in presence of test compound, relative lux units relative to the SCH23390 control)” value is reported as 101.

Same assay, conditions: 10 µM compound, 300 nM dopamine, 2 hr; hit = compound effect <20
COc1ccc(CCNC[C@H](O)c2ccc(O)cc2)cc1OC [Compound 1072, R(-)-Denopamine] was tested, and the “Compound effect (percent receptor signaling in presence of test compound, relative lux units relative to the SCH23390 control)” value was 107%. CNc1cc(NS(=O)(=O)c2ccc(N)cc2)nc(NC)n1.Cl.Cl [Compound 1073, Ro 04-6790 dihydrochloride] was tested, and the “Compound effect (percent receptor signaling in presence of test compound, relative lux units relative to the SCH23390 control)” value was 135%. CC1=C(CC(=O)O)c2cc(F)ccc2/C1=C\c1ccc(S(C)(=O)=O)cc1 [Compound 1080, Sulindac sulfone] was tested, and the “Compound effect (percent receptor signaling in presence of test compound, relative lux units relative to the SCH23390 control)” value was 122%. In the case of Br.CN1CCc2cc(O)c(O)cc2C(c2ccccc2)C1 (centres unmarked) [Compound 1093, SKF 75670 hydrobromide], the “Compound effect (percent receptor signaling in presence of test compound, relative lux units relative to the SCH23390 control)” value is reported as 39%. With CCCCN1CCC(COC(=O)c2cc(Cl)c(N)c3c2OCCO3)CC1.Cl [Compound 1097, SB 204070 hydrochloride] the “Compound effect (percent receptor signaling in presence of test compound, relative lux units relative to the SCH23390 control)” value was 122%. For CCCCCCCC/C=C\CCCCCCCC(=O)NCCc1ccc(O)c(O)c1 [Compound 1098, N-Oleoyldopamine], the “Compound effect (percent receptor signaling in presence of test compound, relative lux units relative to the SCH23390 control)” value was 122%. With Br.CN=c1nc(-c2ccccc2)n(-c2ccccc2)s1 [Compound 1100, SCH-202676 hydrobromide] the “Compound effect (percent receptor signaling in presence of test compound, relative lux units relative to the SCH23390 control)” value was 102%. With CC(C)(C)NCC(O)c1ccc(O)c(CO)c1.CC(C)(C)NCC(O)c1ccc(O)c(CO)c1.O=S(=O)(O)O (centres unmarked) [Compound 1102, Albuterol hemisulfate] the “Compound effect (percent receptor signaling in presence of test compound, relative lux units relative to the SCH23390 control)” value was 106%. For O=C(O)CCC(=O)N1CCC[C@H]1C(=O)O [Compound 1104, N-Succinyl-L-proline], the “Compound effect (percent receptor signaling in presence of test compound, relative lux units relative to the SCH23390 control)” value was 111%. In the case of Cl.O=C(O)C1CCCN(CCC=C(c2ccccc2)c2ccccc2)C1 (centres unmarked) [Compound 1124, SKF 89976A hydrochloride], the “Compound effect (percent receptor signaling in presence of test compound, relative lux units relative to the SCH23390 control)” value is reported as 95%. For CN(C)CCCCSC(=N)N.Cl.Cl [Compound 1134, SKF 91488 dihydrochloride], the “Compound effect (percent receptor signaling in presence of test compound, relative lux units relative to the SCH23390 control)” value was 89%.
